Consider one compound from patent publication US12565485B2, “Solid forms of 1-((S)-4-((R)-7-(6-amino-4-methyl-3-(trifluoromethyl)pyridin-2-yl)-6-chloro-8-fluoro-2-(((s)-1-methylpyrrolidin-2-yl)methoxy)quinazolin-4-yl)-3-methylpiperazin-1-yl)prop-2-en-1-one” (Genentech, Inc., priority 2022, dated 2026).

The nature of the series: Moisture absorption observed during XRPD test. It counts as physicochemical. As for the experimental part:
Compound E Form A was obtained from acetone system. Limited solids were observed after stirring at 5° C. […] The suspension was transferred to −20° C., but limited solids were still observed. Anti-solvent (n-heptane) was added and the sample was transferred to 5° C. However, gel was obtained.

For `C=CC(=O)N1CCN(c2nc(OC[C@@H]3CCCN3C)nc3c(F)c(-c4nc(N)cc(C)c4C(F)(F)F)c(Cl)cc23)[C@@H](C)C1.CS(=O)(=O)O` (atropisomer, axis not shown) [Compound E Form A], the “Moisture behaviour of the sample during XRPD test” value was “tended to absorb moisture and turn to liquid”.
